Reference: patent US9018388B2, “Pesticidal compositions and processes related thereto” (Dow AgroSciences LLC, priority 2012, dated 2015)
Where two headings read alike, the source gives them in different places.

Experiments:
[1] = tested on: Beet Armyworm (BAW) (Spodoptera exigua); assay: Bioassay on beet armyworm (BAW), 128-well diet tray assay; format: in vivo; settings: Spodoptera exigua, read-out: % Mortality BAW 50 μg/cm^2
Description: (§1) Bioassays on Beet Armyworm (“BAW”) and Corn Earworm (“CEW”)
(§2) Certain molecules disclosed in this document were tested against BAW and CEW using procedures described in the following examples. In the reporting of the results, the “BAW & CEW Rating Table” was used (See Table Section).
Bioassays on BAW (Spodoptera exigua)
Bioassays on BAW were conducted using a 128-well diet tray assay. One to five second instar BAW larvae were placed in each well (3 mL) of the diet tray that had been previously filled with 1 mL of artificial diet to which 50 μg/cm^2 of the test compound (dissolved in 50 μL of 90:10 acetone-water mixture) had been applied (to each of eight wells) and then allowed to dry. Trays were covered with a clear self-adhesive cover and held at 25° C., 14:10 light-dark for five to seven days. Percent mortality was recorded for the larvae in each well; activity in the eight wells was then averaged. The results are indicated in the table entitled “Table 5: Biological Results” (See Table Section).

[2] = tested on: Corn Earworm (CEW) (Helicoverpa zea); assay: Bioassay on corn earworm (CEW), 128-well diet tray assay; format: in vivo; settings: Helicoverpa zea, read-out: % Mortality CEW 50 μg/cm^2
Description: as §1, §2
Bioassays on CEW (Helicoverpa zea)
Bioassays on CEW were conducted using a 128-well diet tray assay. One to five second instar CEW larvae were placed in each well (3 mL) of the diet tray that had been previously filled with 1 mL of artificial diet to which 50 μg/cm^2 of the test compound (dissolved in 50 μL of 90:10 acetone-water mixture) had been applied (to each of eight wells) and then allowed to dry. Trays were covered with a clear self-adhesive cover and held at 25° C., 14:10 light-dark for five to seven days. Percent mortality was recorded for the larvae in each well; activity in the eight wells was then averaged. The results are indicated in the table entitled “Table 5: Biological Results” (See Table Section).

Cc1cccc(C)c1/N=C(/N/N=C/c1ccc(-c2ncn(-c3ccc(OC(F)(F)F)cc3)n2)cc1)SCC#C[Si](C)(C)C [Compound 9C]
pest or weed control at 50 µg/cm2, 50 µg/cm2 [1]: 50 to 100%
pest or weed control at 50 µg/cm2, 50 µg/cm2 [2]: 50 to 100%

O=C1CS/C(=N\N=C\c2ccc(-c3ncn(-c4ccc(OC(F)(F)F)cc4)n3)cc2)N1c1c(F)cccc1F [Compound 89C]
pest or weed control at 50 µg/cm2, 50 µg/cm2 ([1]; Beet armyworm, 50 μg/cm^2): 50 to 100%
pest or weed control at 50 µg/cm2, 50 µg/cm2 ([2]; Corn earworm, 50 μg/cm^2): 50 to 100%

Cc1cs/c(=N\N=C\c2ccc(-c3ncn(-c4ccc(OC(F)(F)F)cc4)n3)cc2)n1-c1c(F)cccc1F [Compound 171C]
pest or weed control at 50 µg/cm2, 50 µg/cm2 ([1]; Beet armyworm, 50 μg/cm^2): 50 to 100%
pest or weed control at 50 µg/cm2, 50 µg/cm2 ([2]; Corn earworm, 50 μg/cm^2): 50 to 100%

CC(C)c1ccc(F)cc1N1CS/C1=N\N=C\c1ccc(-c2ncn(-c3ccc(OC(F)(F)C(F)(F)F)cc3)n2)cc1 [Compound 256C]
pest or weed control at 50 µg/cm2, 50 µg/cm2 ([1]; Beet armyworm, 50 μg/cm^2): 50 to 100%
pest or weed control at 50 µg/cm2, 50 µg/cm2 ([2]; Corn earworm, 50 μg/cm^2): 50 to 100%

CC(C)c1c(F)cccc1N1CS/C1=N\N=C\c1ccc(-c2ncn(-c3ccc(OC(F)(F)F)cc3)n2)cc1 [Compound 253C]
pest or weed control at 50 µg/cm2, 50 µg/cm2 ([1]; Beet armyworm, 50 μg/cm^2): 50 to 100%
pest or weed control at 50 µg/cm2, 50 µg/cm2 ([2]; Corn earworm, 50 μg/cm^2): 50 to 100%

COc1ccc(N2/C(=N/N=C/c3ccc(-c4ncn(-c5ccc(OC(F)(F)F)cc5)n4)cc3)SCCC2C)c(C)c1 (stereo not drawn) [Compound 219C]
pest or weed control at 50 µg/cm2, 50 µg/cm2 ([1]; Beet armyworm, 50 μg/cm^2): 50 to 100%
pest or weed control at 50 µg/cm2, 50 µg/cm2 ([2]; Corn earworm, 50 μg/cm^2): 50 to 100%

Cc1cccnc1N1C(=O)CS/C1=N\N=C\c1ccc(-c2ncn(-c3ccc(OC(F)(F)F)cc3)n2)cc1 [Compound 117C]
pest or weed control at 50 µg/cm2, 50 µg/cm2 ([1]; Beet armyworm, 50 μg/cm^2): 50 to 100%
pest or weed control at 50 µg/cm2, 50 µg/cm2 ([2]; Corn earworm, 50 μg/cm^2): 50 to 100%

CC(C)c1ccc(F)cc1N1CS/C1=N\N=C\c1ccc(-c2ncn(-c3ccc(C(F)(C(F)(F)F)C(F)(F)F)cc3)n2)cc1 [Compound 257C]
pest or weed control at 50 µg/cm2, 50 µg/cm2 ([1]; Beet armyworm, 50 μg/cm^2): 50 to 100%
pest or weed control at 50 µg/cm2, 50 µg/cm2 ([2]; Corn earworm, 50 μg/cm^2): 50 to 100%

COc1ccc(N2C(=O)CS/C2=N\N=C\c2ccc(-c3ncn(-c4ccc(OC(F)(F)F)cc4)n3)cc2)cc1 [Compound 115C]
pest or weed control at 50 µg/cm2, 50 µg/cm2 ([1]; Beet armyworm, 50 μg/cm^2): 0 to 50%

Cc1cccc(Cl)c1N1CCCS/C1=N\N=C\c1ccc(-c2ncn(-c3ccc(OC(F)(F)F)cc3)n2)cc1 [Compound 196C]
pest or weed control at 50 µg/cm2, 50 µg/cm2 ([1]; Beet armyworm, 50 μg/cm^2): 50 to 100%
pest or weed control at 50 µg/cm2, 50 µg/cm2 ([2]; Corn earworm, 50 μg/cm^2): 50 to 100%

CC(C)(C)c1ccccc1N1C(=O)CS/C1=N\N=C\c1ccc(-c2ncn(-c3ccc(OC(F)(F)F)cc3)n2)cc1 [Compound 125C]
pest or weed control at 50 µg/cm2, 50 µg/cm2 ([1]; Beet armyworm, 50 μg/cm^2): 50 to 100%
pest or weed control at 50 µg/cm2, 50 µg/cm2 ([2]; Corn earworm, 50 μg/cm^2): 50 to 100%

Cc1cccc(Cl)c1N1C(=O)CS/C1=N\N=C\c1ccc(-c2ncn(-c3ccc(OC(F)(F)F)cc3)n2)cc1 [Compound 93C]
pest or weed control at 50 µg/cm2, 50 µg/cm2 ([1]; Beet armyworm, 50 μg/cm^2): 50 to 100%
pest or weed control at 50 µg/cm2, 50 µg/cm2 ([2]; Corn earworm, 50 μg/cm^2): 50 to 100%

COC(=O)C1CC(c2ccc(/C=N/N=C3\SCC(=O)N3c3c(Cl)cccc3Cl)cc2)=NN1c1ccc(OC(F)(F)F)cc1 (stereo not drawn) [Compound 109C]
pest or weed control at 50 µg/cm2, 50 µg/cm2 ([1]; Beet armyworm, 50 μg/cm^2): 50 to 100%
pest or weed control at 50 µg/cm2, 50 µg/cm2 ([2]; Corn earworm, 50 μg/cm^2): 50 to 100%

CS/C(=N\c1ccc(N(C)C)cc1)N/N=C/c1ccc(-c2ncn(-c3ccc(OC(F)(F)F)cc3)n2)cc1 [Compound 1C, N-(4-dimethylaminophenyl)-S-methyl-2-{4-[1-(4-trifluoromethoxyphenyl)-1H-[1,2,4]-triazol-3-yl]-benzylidene}-hydrazine-carbothioamide]
pest or weed control at 50 µg/cm2, 50 µg/cm2 ([1]; Beet armyworm, 50 μg/cm^2): 50 to 100%
pest or weed control at 50 µg/cm2, 50 µg/cm2 ([2]; Corn earworm, 50 μg/cm^2): 50 to 100%

Cc1ccccc1N1CCS/C1=N\N=C\c1ccc(-c2ncn(-c3ccc(OC(F)(F)F)cc3)n2)cc1 [Compound 141C]
pest or weed control at 50 µg/cm2, 50 µg/cm2 ([1]; Beet armyworm, 50 μg/cm^2): 50 to 100%
pest or weed control at 50 µg/cm2, 50 µg/cm2 ([2]; Corn earworm, 50 μg/cm^2): 50 to 100%

COc1cc(C)c(/N=C(/N/N=C/c2ccc(-c3ncn(-c4ccc(OC(F)(F)F)cc4)n3)cc2)SCC(=O)O)c(C)c1 [Compound 48C]
pest or weed control at 50 µg/cm2, 50 µg/cm2 ([1]; Beet armyworm, 50 μg/cm^2): 50 to 100%
pest or weed control at 50 µg/cm2, 50 µg/cm2 ([2]; Corn earworm, 50 μg/cm^2): 50 to 100%

CCC(C)c1ccccc1N1C(=O)CCS/C1=N\N=C\c1ccc(-c2ncn(-c3ccc(OC(F)(F)F)cc3)n2)cc1 (stereo not drawn) [Compound 230C]
pest or weed control at 50 µg/cm2, 50 µg/cm2 ([1]; Beet armyworm, 50 μg/cm^2): 50 to 100%
pest or weed control at 50 µg/cm2, 50 µg/cm2 ([2]; Corn earworm, 50 μg/cm^2): 50 to 100%

CCOc1cccc(OCC)c1N1C(=O)CS/C1=N\N=C\c1ccc(-c2ncn(-c3ccc(OC(F)(F)F)cc3)n2)cc1 [Compound 98C]
pest or weed control at 50 µg/cm2, 50 µg/cm2 ([1]; Beet armyworm, 50 μg/cm^2): 50 to 100%

Cc1cccc(C)c1/N=C(/N/N=C/c1ccc(-c2ncn(-c3ccc(OC(F)(F)F)cc3)n2)cc1)SCc1ccc(F)cc1F [Compound 7C]
pest or weed control at 50 µg/cm2, 50 µg/cm2 ([2]; Corn earworm, 50 μg/cm^2): 50 to 100%

FC(F)(F)Oc1ccc(-n2cnc(-c3ccc(/C=N/N=C4\SCCN4c4ccccc4OC(F)(F)F)cc3)n2)cc1 [Compound 153C]
pest or weed control at 50 µg/cm2, 50 µg/cm2 ([2]; Corn earworm, 50 μg/cm^2): 50 to 100%
